# Results: patent US9115122B2, “Non-ATP dependent inhibitors of extracellular signal-regulated kinase (ERK)” (UNIVERSITY OF MARYLAND, BALTIMORE, priority 2012, dated 2015)
# Assays:
# [1] = tested on: ERK2 vs p38α MAP kinase; experiment: Selectivity for ERK2 compared to p38α MAP kinase; type: binding
# [2] = biological target: ERK2 R275A (Rattus norvegicus (Rat), UniProt P63086, R275A); experiment: Fluorescence quenching (FQ) binding affinity; conditions: read-out: KD R275A (Site 3)
# [3] = biological target: ERK2 wild type (WT) (Rattus norvegicus (Rat), UniProt P63086); experiment: Fluorescence quenching (FQ) binding affinity; conditions: 1 nM to 20 μM test compound
# ERK2 wild type (WT), sequence (P63086 whole entry): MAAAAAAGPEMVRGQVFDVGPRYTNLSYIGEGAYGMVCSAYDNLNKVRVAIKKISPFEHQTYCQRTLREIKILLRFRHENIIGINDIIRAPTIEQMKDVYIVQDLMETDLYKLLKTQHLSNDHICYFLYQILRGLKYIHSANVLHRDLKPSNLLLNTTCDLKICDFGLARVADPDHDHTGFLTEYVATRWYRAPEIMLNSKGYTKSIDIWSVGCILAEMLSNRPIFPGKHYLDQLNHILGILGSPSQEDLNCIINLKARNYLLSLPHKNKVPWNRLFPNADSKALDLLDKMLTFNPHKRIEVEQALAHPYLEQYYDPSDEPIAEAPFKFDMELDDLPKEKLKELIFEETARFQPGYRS
# [4] = biological target: ERK2 L198A/L235A (Rattus norvegicus (Rat), UniProt P63086, L198A/L235A); experiment: Fluorescence quenching (FQ) binding affinity; conditions: read-out: KD L198A/L235A (Site 5)
# ERK2 L198A/L235A, sequence (P63086 whole entry L198A/L235A): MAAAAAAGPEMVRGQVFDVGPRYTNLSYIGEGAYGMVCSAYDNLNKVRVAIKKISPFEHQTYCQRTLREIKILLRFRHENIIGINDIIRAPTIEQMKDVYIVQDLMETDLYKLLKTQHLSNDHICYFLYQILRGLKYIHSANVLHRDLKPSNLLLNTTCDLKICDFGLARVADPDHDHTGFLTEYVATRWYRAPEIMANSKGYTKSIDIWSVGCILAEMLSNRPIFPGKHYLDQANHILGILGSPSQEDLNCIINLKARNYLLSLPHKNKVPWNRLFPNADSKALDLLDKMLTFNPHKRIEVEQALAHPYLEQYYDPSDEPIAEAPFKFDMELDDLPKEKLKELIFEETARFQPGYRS
# [5] = biological target: ERK2 L198A/L232A (Rattus norvegicus (Rat), UniProt P63086, L198A/L232A); experiment: Fluorescence quenching (FQ) binding affinity; conditions: read-out: KD L198A/L232A (Site 5)
# ERK2 L198A/L232A, sequence (P63086 whole entry L198A/L232A): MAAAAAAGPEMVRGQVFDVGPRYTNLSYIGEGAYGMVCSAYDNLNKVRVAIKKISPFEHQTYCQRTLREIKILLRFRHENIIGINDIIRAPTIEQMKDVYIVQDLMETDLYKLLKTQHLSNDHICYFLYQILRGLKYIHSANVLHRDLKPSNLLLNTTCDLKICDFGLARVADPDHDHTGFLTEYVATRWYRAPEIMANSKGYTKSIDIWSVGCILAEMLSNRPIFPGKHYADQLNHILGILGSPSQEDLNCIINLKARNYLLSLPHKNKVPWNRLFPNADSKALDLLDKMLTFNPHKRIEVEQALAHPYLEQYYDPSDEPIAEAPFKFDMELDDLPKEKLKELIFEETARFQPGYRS
# [6] = biological target: ERK2 L265A (Rattus norvegicus (Rat), UniProt P63086, L265A); experiment: Fluorescence quenching (FQ) binding affinity; conditions: read-out: KD L265A (Site 4)
# ERK2 L265A, sequence (P63086 whole entry L265A): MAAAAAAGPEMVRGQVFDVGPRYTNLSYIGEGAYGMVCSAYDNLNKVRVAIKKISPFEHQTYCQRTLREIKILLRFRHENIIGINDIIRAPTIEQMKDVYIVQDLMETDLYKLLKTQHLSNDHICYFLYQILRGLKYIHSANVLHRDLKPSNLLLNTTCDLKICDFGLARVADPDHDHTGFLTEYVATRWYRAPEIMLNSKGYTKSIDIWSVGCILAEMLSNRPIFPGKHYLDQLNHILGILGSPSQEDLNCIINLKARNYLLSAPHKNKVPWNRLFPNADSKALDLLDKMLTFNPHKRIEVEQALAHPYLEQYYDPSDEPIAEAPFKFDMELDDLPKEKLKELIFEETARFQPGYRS
# [7] = tested on: ERK1/2-mediated phosphorylation of Elk-1; experiment: Immunoblot of ERK1/2-mediated Elk-1 phosphorylation in EGF treated HeLa cells; type: cell-based; conditions: 100 μM, EGF 25 ng/mL 10 min
# Protocol: (b) HeLa cells were pre-incubated for 30 min with indicated compounds (100 μM) followed by treatment with EGF (25 ng/mL) for 10 min. to activate ERK1/2 signaling. Lysates were immunoblotted for phosphorylated Elk1 (pElk1 S383) or active ERK1/2 (pERK1/2). […] The MEK1/2 inhibitor U0126 (10 μM) was used to block all ERK1/2 signaling and α-tubulin expression was used as a protein loading control.
# Proteins were separated by SDS-PAGE, analyzed by immunoblotting, and detected using enhanced chemiluminescence (ECL, GE Healthcare, United Kingdom).
# [8] = biological target: ERK2 L232A (Rattus norvegicus (Rat), UniProt P63086, L232A); experiment: Fluorescence quenching (FQ) binding affinity; conditions: read-out: KD L232A (Site 5)
# ERK2 L232A, sequence (P63086 whole entry L232A): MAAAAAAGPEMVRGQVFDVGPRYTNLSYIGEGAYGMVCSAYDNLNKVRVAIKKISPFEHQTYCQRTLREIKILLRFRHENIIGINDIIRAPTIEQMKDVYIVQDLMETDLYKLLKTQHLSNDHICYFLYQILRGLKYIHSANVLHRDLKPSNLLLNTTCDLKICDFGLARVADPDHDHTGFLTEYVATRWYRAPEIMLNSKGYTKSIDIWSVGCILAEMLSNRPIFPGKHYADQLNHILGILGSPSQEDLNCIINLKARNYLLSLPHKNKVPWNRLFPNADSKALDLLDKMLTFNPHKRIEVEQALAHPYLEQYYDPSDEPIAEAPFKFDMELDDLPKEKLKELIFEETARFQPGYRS
# [9] = tested on: MEK1-induced AP-1 promoter activity; experiment: AP-1 promoter luciferase assay, HeLa cells expressing active MEK1 mutant; type: cell-based; conditions: Homo sapiens, 4 hours, read-out: IC50 inhibition of MEK1-induced AP-1 promoter activity
# Protocol: FIG. 4. Compound SF-3-026 and analogs inhibit SRE and AP-1 transcription factor function. (a) HeLa cells were transfected with constructs containing SRE or AP-1 promoters driving luciferase expression and then stimulated with EGF in the presence or absence of SF-3-026 for 4 hours followed by measurements of luciferase activity. Cells treated with U0126 were used as a positive inhibitor control. (b and c) HeLa cells were prepared and treated as in (a) with the indicated concentrations of SF-3-026 or analogs for 4 hours followed by the measurement of luciferase activity regulated by the SRE (b) or AP-1 (c) promoters. Data in (b and c) were normalized to EGF-only treatment and represent the mean and standard deviation from three independent experiments. (d) Compound SF-3-026 and analogs inhibit MEK1-induced AP-1 transcription factor function. HeLa cells were transfected with the AP-1 promoter construct and a constitutively active MEK1 mutant in the presence (10 μM) or absence of the MEK1/2 inhibitor (U0126) or an ATP-competitive ERK inhibitor (ERKi) for 4 hours followed by measurements of luciferase activity. (e) Cells expressing the AP-1 promoter and an active MEK-1 construct were treated with the indicated concentrations of SF-3-026 or analogs for 4 hours followed by the measurement of luciferase activity. Data in (e) were normalized to active MEK1-only treatment and represent the mean and standard deviation from three independent experiments.
# HeLa cells were seeded in 24-well plates (40,000 cells/well) and incubated 18 hours to achieve ˜60-70% confluent. Cells were transfected with activator protein-1 (pAP1(PMA)-TA-Luc; Clontech) or the serum response element (pGL4.33-SRE; Promega) luciferase reporter plasmids (250 ng/well) using Lipofectamine™ (Invitrogen). After 16 hours, cells were pre-treated with varying amounts of compounds as indicated for 20 minutes, followed by stimulation with EGF (25 ng/mL) for 4.5 hr. In some experiments, cells transfected with the pAP1(PMA)-TA-Luc promoter and a constitutively active MEK1 mutant cDNA were treated with varying amounts of compounds during the last 4 hours of incubation. The luciferase activity in the cell extracts was determined with a Dual Luciferase Assay System (Promega) according to the manufacturer's instructions. Luciferase activities were monitored with a Lumat LB 9507 luminometer (Berthold Technology) and data were normalized to the amount of protein in each sample. […]
# ERK2 R275A, sequence (P63086 whole entry R275A): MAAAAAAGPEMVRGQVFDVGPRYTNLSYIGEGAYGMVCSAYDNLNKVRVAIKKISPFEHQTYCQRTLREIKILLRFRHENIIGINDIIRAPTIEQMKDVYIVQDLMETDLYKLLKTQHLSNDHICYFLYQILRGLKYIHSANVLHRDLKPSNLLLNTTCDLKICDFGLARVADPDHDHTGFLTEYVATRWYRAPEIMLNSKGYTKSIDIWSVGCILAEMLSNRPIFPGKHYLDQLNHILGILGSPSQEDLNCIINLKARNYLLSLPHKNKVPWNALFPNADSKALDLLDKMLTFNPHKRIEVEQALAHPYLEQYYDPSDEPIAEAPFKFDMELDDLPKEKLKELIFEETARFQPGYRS
smiles,measurement,setting,value
O=S1(=O)C=CC(OS(=O)(=O)c2ccccc2)C1 (stereo not drawn) [SF-3-026],selectivity for ERK2 as compared to p38α MAP kinase,[1],~150 fold
same,Kd,[2],0.24 µM
same,Kd,[3],0.13 ± 0.02 µM
same,Kd,[4],> 20 µM
same,Kd,[5],0.14 ± 0.02 µM
same,Kd,[6],0.28 µM
same,inhibition of ERK1/2-mediated Elk-1 phosphorylation,[7],inhibit ERK1/2-mediated phosphorylation
same,Kd,[8],0.13 µM
same,IC50,[9],~40 µM
